Data set [1] deals with Trypanosoma cruzi. Kind of data set: Antitrypanosomal activity against Trypanosoma cruzi Tulahuen 2 at 25 uM after 5 days. Format: functional. The settings on record: Tulahuen 2, 120 h, read-out: GI.
For data set [2], the system named is Trypanosoma cruzi. Kind of data set: Antitrypanosomal activity against Trypanosoma cruzi Tulahuen 2 after 5 days. The data set is classed as functional. The note with it: Tulahuen 2, 120 h, read-out: ID50 (the source's name).
Data set [3] in a line: Cytotoxicity against human THP1 cells after 48 hrs. The data set is classed as cell-based. The note with it: THP-1 cells, read-out: ID50.
The nature of data set [4]: Therapeutic index, ID50 for human THP1 cells to ID50 for Trypanosoma cruzi. The data set is classed as cell-based. The settings on record: THP-1 cells versus Trypanosoma cruzi, read-out: TI.

A value given as a limit tells only on which side of the number the result lay.

Consider `C/C(=N\NC(=S)N1CCCCC1)c1ccc([N+](=O)[O-])cc1`, for which the inhibition of growth at 25 µM in data set [1] was 12%. Further, the IC50 in data set [2] is greater than 25 µM.

For the compound `CNC(=S)N/N=C(\C)c1ccc([N+](=O)[O-])cc1`, the inhibition of growth at 25 µM in data set [1] turned out to be 31%. Moreover, in data set [2], the IC50 was greater than 25 µM. Besides, the CC50 at 48 h in data set [3] was greater than 400 µM. In addition, in data set [4], the selectivity ratio was greater than 16.

As for `C/C(=N\NC(=S)N(C)C)c1ccc([N+](=O)[O-])cc1`, the inhibition of growth at 25 µM in data set [1] is 100%. For the same compound, the IC50 in data set [2] turned out to be 0.28 µM. Also, the CC50 at 48 h in data set [3] was greater than 400 µM. The selectivity ratio in data set [4] was greater than 1430.

As for `O=C(Cn1ccnc1[N+](=O)[O-])NCc1ccccc1` [BENZNIDAZOLE], the inhibition of growth at 25 µM in data set [1] was found to be 100%. The IC50 in data set [2] came to 7.4 µM. The CC50 at 48 h in data set [3] was greater than 300 µM. Besides, the selectivity ratio in data set [4] is greater than 40.

With `CC1CS(=O)(=O)CCN1/N=C/c1ccc([N+](=O)[O-])o1` (stereo not drawn) [NIFURTIMOX], the inhibition of growth at 25 µM in data set [1] is 100%. In data set [2], the IC50 came out at 7.7 µM. Further, in data set [3], the CC50 at 48 h is greater than 300 µM. In addition, in data set [4], the selectivity ratio was greater than 38.

These data come from ChEMBL document CHEMBL1156673, “4-nitroacetophenone-derived thiosemicarbazones and their copper(II) complexes with significant in vitro anti-trypanosomal activity” (Eur J Med Chem, 2008).
